Assay results as given in US12240862B2, “Inhibitors of peptidylarginine deiminases” (Gilead Sciences, Inc., priority 2020, dated 2025).

target: T1, human PAD4 (Homo sapiens, UniProt Q9UM07); test: In vitro PAD4 BAEE biochemical assay; conditions: human PAD4, BAEE substrate; 5 nM PAD4, 2 mM calcium chloride, 3 mM BAEE; geometric mean of multiple experiments
T1 construct: human PAD4 (NM_012387), A2P663, was PCR amplified; His-SUMO (N, cleaved yes); made in house; host or cells: E. coli BL21(DE3)
Method in brief: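 Tag-free recombinant hPAD4 (5 nM), 2 mM CaCl2, 3 mM BAEE, 50 mM MOPS pH 7.6, 2 mM DTT; 30 min compound preincubation, 2 h reaction, all 25 °C. EDTA quench; ammonia read via o-phthalaldehyde amine coupling, 1 h.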

T1 sequence (Q9UM07 2-663): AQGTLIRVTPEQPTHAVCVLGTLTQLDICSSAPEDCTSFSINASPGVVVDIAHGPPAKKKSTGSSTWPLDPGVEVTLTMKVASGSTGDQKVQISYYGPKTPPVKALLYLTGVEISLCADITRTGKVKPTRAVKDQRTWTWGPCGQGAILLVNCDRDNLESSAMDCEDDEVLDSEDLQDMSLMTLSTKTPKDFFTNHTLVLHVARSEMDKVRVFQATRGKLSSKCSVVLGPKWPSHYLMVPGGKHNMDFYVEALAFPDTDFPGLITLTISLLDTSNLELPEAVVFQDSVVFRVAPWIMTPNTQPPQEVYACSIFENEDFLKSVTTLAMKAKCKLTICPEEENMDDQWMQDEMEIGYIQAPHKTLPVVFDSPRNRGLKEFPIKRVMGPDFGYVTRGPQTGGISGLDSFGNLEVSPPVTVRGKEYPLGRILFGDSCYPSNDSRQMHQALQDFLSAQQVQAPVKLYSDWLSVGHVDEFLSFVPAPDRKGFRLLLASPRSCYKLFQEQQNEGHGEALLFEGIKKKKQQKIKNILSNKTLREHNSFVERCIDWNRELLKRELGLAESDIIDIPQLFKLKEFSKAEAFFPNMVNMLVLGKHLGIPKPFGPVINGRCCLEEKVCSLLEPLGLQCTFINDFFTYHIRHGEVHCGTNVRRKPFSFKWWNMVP

Row | Structure (SMILES) | IC50
1 | COc1cc(C(=O)N2[C@H]3CC[C@@H]2[C@H](N)C3)cc2nc(-c3cc4ccc([C@@H](C)NC(=O)N5CC(C(F)F)C5)nc4n3CC3CC3)c(C)n12 [Example 206, ~{N}-[(1~{R})-1-[2-[7-[(1~{R},2~{R},4~{S})-2-amino-7-azabicyclo[2.2.1]heptane-7-carbonyl]-5-methoxy-3-methylimidazo [1,2-a]pyridin-2-yl]-1-(cyclopropylmethyl)pyrrolo [2,3-b]pyridin-6-yl]ethyl]-3-(difluoromethyl)azetidine-1-carboxamide] | 37.9 nM
2 | COc1cc(C(=O)N2[C@H]3CC[C@@H]2[C@H](N)C3)cc2nc(-c3cc4ccc([C@@H](C)NC(=O)N5CCC(F)(F)CC5)nc4n3CC3CC3)c(C)n12 [Example 207, ~{N}-[(1~{R})-1-[2-[7-[(1~{R},2~{R},4~{S})-2-amino-7-azabicyclo[2.2.1]heptane-7-carbonyl]-5-methoxy-3-methylimidazo [1,2-a]pyridin-2-yl]-1-(cyclopropylmethyl)pyrrolo [2,3-b]pyridin-6-yl]ethyl]-4,4-difluoropiperidine-1-carboxamide] | 46 nM
3 | COc1cc(C(=O)N2[C@H]3CC[C@@H]2[C@H](N)C3)cc2nc(-c3cc4ccc([C@@H](C)NC(=O)N5CC(F)(F)C(F)(F)C5)nc4n3CC3CC3)c(C)n12 [Example 208, ~{N}-[(1~{R})-1-[2-[7-[(1~{R},2~{R},4~{S})-2-amino-7-azabicyclo[2.2.1]heptane-7-carbonyl]-5-methoxy-3-methylimidazo [1,2-a]pyridin-2-yl]-1-(cyclopropylmethyl)pyrrolo [2,3-b]pyridin-6-yl]ethyl]-3,3,4,4-tetrafluoropyrrolidine-1-carboxamide] | 111 nM
4 | COc1cc(C(=O)N2[C@H]3CC[C@@H]2[C@H](N)C3)cc2nc(-c3cc4ccc([C@@H](C)NC(=O)N5CC6C(C5)C6(F)F)nc4n3CC3CC3)c(C)n12 (some centres unmarked) [Example 209, ~{N}-[(1~{R})-1-[2-[7-[(1~{R},2~{R},4~{S})-2-amino-7-azabicyclo[2.2.1]heptane-7-carbonyl]-5-methoxy-3-methylimidazo [1,2-a]pyridin-2-yl]-1-(cyclopropylmethyl)pyrrolo [2,3-b]pyridin-6-yl]ethyl]-6,6-difluoro-3-azabicyclo[3.1.0]hexane-3-carboxamide] | 37.8 nM
5 | COc1cc(C(=O)N2[C@H]3CC[C@@H]2[C@H](N)C3)cc2nc(-c3cc4ccc([C@@H](C)NC(=O)N5CCO[C@H](C)C5)nc4n3CC3CC3)c(C)n12 [Example 210, (2~{R})-~{N}-[(1~{R})-1-[2-[7-[(1~{R},2~{R}, 4~{S})-2-amino-7-azabicyclo[2.2.1]heptane-7-carbonyl]-5-methoxy-3-methylimidazo [1,2-a]pyridin-2-yl]-1-(cyclopropylmethyl)pyrrolo [2,3-b]pyridin-6-yl]ethyl]-2-methylmorpholine-4-carboxamide] | 39.7 nM
6 | COc1cc(C(=O)N2[C@H]3CC[C@@H]2[C@H](N)C3)cc2nc(-c3cc4ccc([C@@H](C)NC(=O)N5CC6CC(C5)O6)nc4n3CC3CC3)c(C)n12 [Example 211, ~{N}-[(1~{R})-1-[2-[7-[(1~{R},2~{R},4~{S})-2-amino-7-azabicyclo[2.2.1]heptane-7-carbonyl]-5-methoxy-3-methylimidazo [1,2-a]pyridin-2-yl]-1-(cyclopropylmethyl)pyrrolo [2,3-b]pyridin-6-yl]ethyl]-6-oxa-3-azabicyclo [3.1.1]heptane-3-carboxamide] | 31.6 nM
7 | COc1cc(C(=O)N2[C@H]3CC[C@@H]2[C@H](N)C3)cc2nc(-c3cc4ccc([C@@H](C)NC(=O)NC5(C)CC(F)(F)C5)nc4n3CC3CC3)c(C)n12 [Example 212, 1-[(1~{R})-1-[2-[7-[(1~{R},2~{R},4~{S})-2-amino-7-azabicyclo[2.2.1]heptane-7-carbonyl]-5-methoxy-3-methylimidazo [1,2-a]pyridin-2-yl]-1-(cyclopropylmethyl)pyrrolo [2,3-b]pyridin-6-yl]ethyl]-3-(3,3-difluoro-1-methylcyclobutyl)urea] | 64.5 nM
8 | COc1cc(C(=O)N2[C@H]3CC[C@@H]2[C@H](N)C3)cc2nc(-c3cc4ccc([C@@H](C)NC(=O)NC(C)(C)C(F)(F)F)nc4n3CC3CC3)c(C)n12 [Example 213, 1-[(1~{R})-1-[2-[7-[(1~{R},2~{R},4~{S})-2-amino-7-azabicyclo[2.2.1]heptane-7-carbonyl]-5-methoxy-3-methylimidazo [1,2-a]pyridin-2-yl]-1-(cyclopropylmethyl)pyrrolo [2,3-b]pyridin-6-yl]ethyl]-3-(1,1,1-trifluoro-2-methylpropan-2-yl)urea] | 46.9 nM
9 | COc1cc(C(=O)N2[C@H]3CC[C@@H]2[C@H](N)C3)cc2nc(-c3cc4ccc([C@@H](C)NC(=O)NC5CCOCC5)nc4n3CC3CC3)c(C)n12 [Example 214, 1-[(1~{R})-1-[2-[7-[(1~{R},2~{R},4~{S})-2-amino-7-azabicyclo[2.2.1]heptane-7-carbonyl]-5-methoxy-3-methylimidazo [1,2-a]pyridin-2-yl]-1-(cyclopropylmethyl)pyrrolo [2,3-b]pyridin-6-yl]ethyl]-3-(oxan-4-yl)urea] | 45 nM
10 | COc1cc(C(=O)N2[C@H]3CC[C@@H]2[C@H](N)C3)cc2nc(-c3cc4ccc([C@@H](C)NC(=O)N5CC[C@H](CCO)C5)nc4n3CC3CC3)c(C)n12 [Example 215, (3~{R})-~{N}-[(1~{R})-1-[2-[7-[(1~{R},2~{R}, 4~{S})-2-amino-7-azabicyclo[2.2.1]heptane-7-carbonyl]-5-methoxy-3-methylimidazo [1,2-a]pyridin-2-yl]-1-(cyclopropylmethyl)pyrrolo [2,3-b]pyridin-6-yl]ethyl]-3-(2-hydroxyethyl)pyrrolidine-1-carboxamide] | 44.2 nM
11 | COc1cc(C(=O)N2[C@H]3CC[C@@H]2[C@H](N)C3)cc2nc(-c3cc4ccc([C@@H](C)NC(=O)N5CC[C@H](F)C5)nc4n3CC3CC3)c(C3CC3)n12 [Example 216, (3~{S})-~{N}-[(1~{R})-1-[2-[7-[(1~{R},2~{R}, 4~{S})-2-amino-7-azabicyclo[2.2.1]heptane-7-carbonyl]-3-cyclopropyl-5-methoxyimidazo [1,2-a]pyridin-2-yl]-1-(cyclopropylmethyl)pyrrolo [2,3-b]pyridin-6-yl]ethyl]-3-fluoropyrrolidine-1-carboxamide] | 48.3 nM
12 | COc1cc(C(=O)N2[C@H]3CC[C@@H]2[C@H](N)C3)cc2nc(-c3cc4ccc([C@@H](C)NC(=O)N[C@@H](C)c5cccnc5)nc4n3CC3CC3)c(C3CC3)n12 [Example 217, 1-[(1~{R})-1-[2-[7-[(1~{R},2~{R},4~{S})-2-amino-7-azabicyclo[2.2.1]heptane-7-carbonyl]-3-cyclopropyl-5-methoxyimidazo [1,2-a]pyridin-2-yl]-1-(cyclopropylmethyl)pyrrolo [2,3-b]pyridin-6-yl]ethyl]-3-[(1~{S})-1-pyridin-3-ylethyl]urea] | 45.9 nM
13 | COc1cc(C(=O)N2[C@H]3CC[C@@H]2[C@H](N)C3)cc2nc(-c3cc4ccc([C@@H](C)NC(=O)N[C@H](C)c5cccnc5)nc4n3CC3CC3)c(C3CC3)n12 [Example 218, 1-[(1~{R})-1-[2-[7-[(1~{R},2~{R},4~{S})-2-amino-7-azabicyclo[2.2.1]heptane-7-carbonyl]-3-cyclopropyl-5-methoxyimidazo [1,2-a]pyridin-2-yl]-1-(cyclopropylmethyl)pyrrolo [2,3-b]pyridin-6-yl]ethyl]-3-[(1~{R})-1-pyridin-3-ylethyl]urea] | 55.5 nM
14 | COc1cc(C(=O)N2[C@H]3CC[C@@H]2[C@H](N)C3)cc2nc(-c3cc4ccc([C@@H](C)NC(=O)N(C)Cc5cccc(=O)[nH]5)nc4n3CC3CC3)c(C)n12 [Example 220, 3-[(1~{R})-1-[2-[7-[(1~{R},2~{R},4~{S})-2-amino-7-azabicyclo[2.2.1]heptane-7-carbonyl]-5-methoxy-3-methylimidazo [1,2-a]pyridin-2-yl]-1-(cyclopropylmethyl)pyrrolo [2,3-b]pyridin-6-yl]ethyl]-1-methyl-1-[(6-oxo-1~{H}-pyridin-2-yl)methyl]urea] | 79.1 nM
15 | COc1cc(C(=O)N2[C@H]3CC[C@@H]2[C@H](N)C3)cc2nc(-c3cc4ccc([C@@H](C)NC(=O)N(C)C(C)c5cccnc5)nc4n3CC3CC3)c(C)n12 (some centres unmarked) [Example 221, 3-[(1~{R})-1-[2-[7-[(1~{R},2~{R},4~{S})-2-amino-7-azabicyclo[2.2.1]heptane-7-carbonyl]-5-methoxy-3-methylimidazo [1,2-a]pyridin-2-yl]-1-(cyclopropylmethyl)pyrrolo [2,3-b]pyridin-6-yl]ethyl]-1-methyl-1-(1-pyridin-3-ylethyl)urea] | 62 nM
16 | COc1cc(C(=O)N2[C@H]3CC[C@@H]2[C@H](N)C3)cc2nc(-c3cc4ccc([C@@H](C)NC(=O)N(C)Cc5cccnc5)nc4n3CC3CC3)c(C)n12 [Example 222, 3-[(1~{R})-1-[2-[7-[(1~{R},2~{R},4~{S})-2-amino-7-azabicyclo[2.2.1]heptane-7-carbonyl]-5-methoxy-3-methylimidazo [1,2-a]pyridin-2-yl]-1-(cyclopropylmethyl)pyrrolo [2,3-b]pyridin-6-yl]ethyl]-1-methyl-1-(pyridin-3-ylmethyl)urea] | 20 nM
17 | COc1cc(C(=O)N2[C@H]3CC[C@@H]2[C@H](N)C3)cc2nc(-c3cc4ccc([C@@H](C)NC(=O)NCc5ccncc5)nc4n3CC3CC3)c(C)n12 [Example 223, 1-[(1~{R})-1-[2-[7-[(1~{R},2~{R},4~{S})-2-amino-7-azabicyclo[2.2.1]heptane-7-carbonyl]-5-methoxy-3-methylimidazo [1,2-a]pyridin-2-yl]-1-(cyclopropylmethyl)pyrrolo [2,3-b]pyridin-6-yl]ethyl]-3-(pyridin-4-ylmethyl)urea] | 77.3 nM
